Source: patent US12209102B2, “Heterocyclic compounds and uses thereof” (Kumquat Biosciences Inc., priority 2022, dated 2025)

Columns and labels:
GP2D cells = assay: Ras cellular assay, growth of cells with K-Ras G12D mutation (CellTiter-Glo); type: cell-based; conditions: cell growth, Example 9, G12D mutation, read-out: IC50 against GP2D cells
K-Ras WT = target: T1, K-Ras WT (Homo sapiens, UniProt P01116); assay: HTRF resonance energy transfer assay, K-Ras WT / SOS1 interaction; type: biochemical; conditions: HTRF assay of Example 5; read-out: IC50 against K-Ras WT
T1 construct: made in house; host or cells: E. coli BL21 (DE3)
Method in brief: (§1)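 Compounds, tested in duplicate at 10 μM down to 0.01 μM, were read after about 10 min or more by HTRF as the 665/620 nm emission ratio (337 nm excitation) to derive IC50. This ratio reports FRET between an anti-GST-Eu donor on GST-K-Ras (wild-type or mutant) and an anti-6His-XL665 acceptor on His-hSOS1. Buffer: ~5 mM HEPES pH 7.4, 150 mM NaCl, 1 mM DTT, 0.05% BSA, 0.0025% Igepal.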

A549 cells = assay: Ras cellular assay, growth of cells with K-Ras G12S mutation (CellTiter-Glo); type: cell-based; conditions: Homo sapiens, cell growth, Example 9, G12S mutation, read-out: IC50 against A549 cells
Method in brief: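 Growth inhibition IC50 values come from four-parameter fits of CellTiter-Glo luminescence, read about 6 days after compound addition. G12S-mutant A549 cells (e.g. 800/well, RPMI-1640 + 10% heat-inactivated FBS) were plated in tissue-culture-treated or ultra-low-attachment 384-well format. Dosing began the following day with serial dilutions, e.g. 10 points, 3-fold.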

K-Ras G12D = target: T2, K-Ras G12D (Homo sapiens, UniProt P01116, G12D); assay: HTRF resonance energy transfer assay, K-Ras G12D / SOS1 interaction; type: biochemical; conditions: HTRF assay of Example 5; read-out: IC50 against K-Ras G12D
T2 construct: made in house; host or cells: E. coli BL21 (DE3)
Method in brief: as §1

K-Ras G12V = target: T3, K-Ras G12V (Homo sapiens, UniProt P01116, G12V); assay: HTRF resonance energy transfer assay, K-Ras G12V / SOS1 interaction; type: biochemical; conditions: HTRF assay of Example 5; read-out: IC50 against K-Ras G12V
T3 construct: made in house; host or cells: E. coli BL21 (DE3)
Method in brief: as §1

K-Ras G12S = target: T4, K-Ras G12S (Homo sapiens, UniProt P01116, G12S); assay: HTRF resonance energy transfer assay, K-Ras G12S / SOS1 interaction; type: biochemical; conditions: HTRF assay of Example 5; read-out: IC50 against K-Ras G12S
T4 construct: made in house; host or cells: E. coli BL21 (DE3)
Method in brief: as §1

SW620 cells = assay: Ras cellular assay, growth of cells with K-Ras G12V mutation (CellTiter-Glo); type: cell-based; conditions: Homo sapiens, SW-620; cell growth, Example 9, G12V mutation; read-out: IC50 against SW620 cells
Method in brief: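 IC50 values came from a four-parameter fit of CellTiter-Glo viability, read roughly 6 days after dosing with e.g. a 10-point threefold dilution series. G12V-mutant SW620 cells (e.g. 800 per well) had been plated the previous day in RPMI-1640/10% heat-inactivated FBS, on tissue culture-treated or ultra-low attachment plates.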

T2 sequence (P01116 1-188 isoform P01116-2 G12D): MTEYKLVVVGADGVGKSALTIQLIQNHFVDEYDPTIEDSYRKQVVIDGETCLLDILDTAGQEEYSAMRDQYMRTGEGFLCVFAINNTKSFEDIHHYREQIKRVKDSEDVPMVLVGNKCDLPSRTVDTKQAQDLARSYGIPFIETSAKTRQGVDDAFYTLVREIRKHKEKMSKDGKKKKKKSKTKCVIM
T4 sequence (P01116 1-188 isoform P01116-2 G12S): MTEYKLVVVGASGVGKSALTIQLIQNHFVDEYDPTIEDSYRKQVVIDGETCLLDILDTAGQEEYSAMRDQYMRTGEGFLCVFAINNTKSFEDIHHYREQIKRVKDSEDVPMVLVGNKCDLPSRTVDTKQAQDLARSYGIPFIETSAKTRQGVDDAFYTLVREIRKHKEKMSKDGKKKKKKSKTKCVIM
T1 sequence (P01116 1-188 isoform P01116-2): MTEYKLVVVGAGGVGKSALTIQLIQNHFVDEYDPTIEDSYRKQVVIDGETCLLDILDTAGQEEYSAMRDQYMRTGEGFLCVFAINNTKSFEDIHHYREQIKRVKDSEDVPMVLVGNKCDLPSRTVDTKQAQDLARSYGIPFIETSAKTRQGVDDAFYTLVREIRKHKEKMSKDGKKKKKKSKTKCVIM
T3 sequence (P01116 1-188 isoform P01116-2 G12V): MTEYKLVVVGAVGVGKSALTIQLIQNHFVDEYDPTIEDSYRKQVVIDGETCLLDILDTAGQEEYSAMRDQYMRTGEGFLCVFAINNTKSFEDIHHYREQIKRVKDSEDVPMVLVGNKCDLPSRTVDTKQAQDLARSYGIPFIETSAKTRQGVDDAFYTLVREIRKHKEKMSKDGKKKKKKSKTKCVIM

Structure (SMILES) | IC50 (K-Ras WT) | IC50 (A549 cells) | IC50 (K-Ras G12D) | IC50 (K-Ras G12V) | IC50 (K-Ras G12S) | IC50 (SW620 cells) | IC50 (GP2D cells)
C[C@H](Oc1nc2c3c(c(Cl)c(-c4ccc(F)c5sc(N)c(C#N)c45)c(F)c3n1)OCCN2CC(F)F)[C@@H]1CCCN1C [Compound 901, 2-amino-4-(8-chloro-4-(2,2-difluoroethyl)-10-fluoro-2-((S)-1-((S)-1-methylpyrrolidin-2-yl)ethoxy)-5,6-dihydro-4H-[1,4]oxazepino[5,6,7-de]quinazolin-9-yl)-7-fluorobenzo[b]thiophene-3-carbonitrile] | < 100 nM | < 5000 nM | < 100 nM | < 100 nM | < 100 nM | < 5000 nM | < 500 nM
N#Cc1c(N)sc2c(F)ccc(-c3c(Cl)c4c5c(nc(OC[C@@]67CCCN6C[C@H](F)C7)nc5c3F)N(C3CCCC(O)C3)CCO4)c12 (stereo partly drawn) [Compound 854, 2-amino-4-(8-chloro-10-fluoro-2-(((2R,7aS)-2-fluorotetrahydro-1H-pyrrolizin-7a(5H)-yl)methoxy)-4-(3-hydroxycyclohexyl)-5,6-dihydro-4H-[1,4]oxazepino[5,6,7-de]quinazolin-9-yl)-7-fluorobenzo[b]thiophene-3-carbonitrile] | < 100 nM | < 5000 nM | < 100 nM | < 100 nM | < 100 nM | < 5000 nM | < 500 nM
N#Cc1c(N)sc2c(F)ccc(-c3c(Cl)c4c5c(nc(OC[C@@]67CCCN6C[C@H](F)C7)nc5c3F)N(CC(F)F)CCC(CO)O4)c12 (single isomer, unassigned) [Compound 1207] | < 100 nM | < 5000 nM | < 100 nM | < 100 nM | < 100 nM | < 5000 nM | < 500 nM
CC(C1CC1C#N)N1CCOc2c(Cl)c(-c3ccc(F)c4sc(N)c(C#N)c34)c(F)c3nc(OC[C@@]45CCCN4C[C@H](F)C5)nc1c23 (stereo partly drawn) [Compound 923, 2-amino-4-(8-chloro-4-(1-(2-cyanocyclopropyl)ethyl)-10-fluoro-2-(((2R,7aS)-2-fluorotetrahydro-1H-pyrrolizin-7a(5H)-yl)methoxy)-5,6-dihydro-4H-[1,4]oxazepino[5,6,7-de]quinazolin-9-yl)-7-fluorobenzo[b]thiophene-3-carbonitrile] | < 100 nM | < 5000 nM | < 100 nM | < 100 nM | < 100 nM | < 5000 nM | < 500 nM
N#Cc1c(N)sc2c(F)ccc(-c3c(Cl)c4c5c(nc(OC[C@@]67CCCN6C[C@H](F)C7)nc5c3F)N(CC(F)F)[C@@H](C(F)F)CO4)c12 [Compound 1057, 2-amino-4-((5R)-8-chloro-4-(2,2-difluoroethyl)-5-(difluoromethyl)-10-fluoro-2-(((2R,7aS)-2-fluorotetrahydro-1H-pyrrolizin-7a(5H)-yl)methoxy)-5,6-dihydro-4H-[1,4]oxazepino[5,6,7-de]quinazolin-9-yl)-7-fluorobenzo[b]thiophene-3-carbonitrile] | < 100 nM | < 5000 nM | < 100 nM | < 100 nM | < 100 nM | < 5000 nM | < 500 nM
N#Cc1c(N)sc2c(F)ccc(-c3c(Cl)c4c5c(nc(OC[C@@]67CCCN6C[C@H](F)C7)nc5c3F)N(C3CCN(C(=O)C[C@@H]5CCCO5)C3)CCO4)c12 (stereo partly drawn) [Compound 777, 2-amino-4-(8-chloro-10-fluoro-2-(((2R,7aS)-2-fluorotetrahydro-1H-pyrrolizin-7a(5H)-yl)methoxy)-4-(1-(2-((S)-tetrahydrofuran-2-yl)acetyl)pyrrolidin-3-yl)-5,6-dihydro-4H-[1,4]oxazepino[5,6,7-de]quinazolin-9-yl)-7-fluorobenzo[b]thiophene-3-carbonitrile] | < 100 nM | < 5000 nM | < 100 nM | < 100 nM | < 100 nM | < 5000 nM | < 500 nM
CN1c2nc(OC[C@@]34CCCN3C[C@H](F)C4)nc3c(F)c(-c4ccc(F)c5sc(N)c(C#N)c45)c(Cl)c(c23)OCC1CO (stereo partly drawn) [Compound 900, 2-amino-4-(8-chloro-10-fluoro-2-(((2R,7aS)-2-fluorotetrahydro-1H-pyrrolizin-7a(5H)-yl)methoxy)-5-(hydroxymethyl)-4-methyl-5,6-dihydro-4H-[1,4]oxazepino[5,6,7-de]quinazolin-9-yl)-7-fluorobenzo[b]thiophene-3-carbonitrile] | < 100 nM | < 5000 nM | < 100 nM | < 100 nM | < 100 nM | < 5000 nM | < 500 nM

Further lines, with some results ahead:

IC50 (K-Ras WT) | IC50 (A549 cells) | IC50 (K-Ras G12D) | IC50 (K-Ras G12V) | IC50 (K-Ras G12S) | IC50 (SW620 cells) | Structure (SMILES) | IC50 (GP2D cells)
< 100 nM | < 5000 nM | < 100 nM | < 100 nM | < 100 nM | < 5000 nM | C[C@H]1CN(CCN(C)C)c2nc(OC[C@@]34CCCN3C[C@H](F)C4)nc3c(F)c(-c4ccc(F)c5sc(N)c(C#N)c45)c(Cl)c(c23)O1 [Compound 950, 2-amino-4-((6S)-8-chloro-4-(2-(dimethylamino)ethyl)-10-fluoro-2-(((2R,7aS)-2-fluorotetrahydro-1H-pyrrolizin-7a(5H)-yl)methoxy)-6-methyl-5,6-dihydro-4H-[1,4]oxazepino[5,6,7-de]quinazolin-9-yl)-7-fluorobenzo[b]thiophene-3-carbonitrile] | < 500 nM
< 100 nM | < 5000 nM | < 100 nM | < 100 nM | < 100 nM | < 5000 nM | COC1CC(C(=O)N2CCC(N3CCOc4c(Cl)c(-c5ccc(F)c6sc(N)c(C#N)c56)c(F)c5nc(OC[C@@]67CCCN6C[C@H](F)C7)nc3c45)C2)C1 (stereo partly drawn) [Compound 881, 2-amino-4-(8-chloro-10-fluoro-2-(((2R,7aS)-2-fluorotetrahydro-1H-pyrrolizin-7a(5H)-yl)methoxy)-4-(1-(3-methoxycyclobutane-1-carbonyl)pyrrolidin-3-yl)-5,6-dihydro-4H-[1,4]oxazepino[5,6,7-de]quinazolin-9-yl)-7-fluorobenzo[b]thiophene-3-carbonitrile] | < 500 nM
< 100 nM | < 5000 nM | < 100 nM | < 100 nM | < 100 nM | < 5000 nM | N#CCCN1CCOc2c(Cl)c(-c3ccc(F)c4sc(N)c(C#N)c34)c(F)c3nc(OC[C@@]45CCCN4C[C@H](F)C5)nc1c23 [Compound 648, 2-amino-4-(8-chloro-4-(2-cyanoethyl)-10-fluoro-2-(((2R,7aS)-2-fluorotetrahydro-1H-pyrrolizin-7a(5H)-yl)methoxy)-5,6-dihydro-4H-[1,4]oxazepino[5,6,7-de]quinazolin-9-yl)-7-fluorobenzo[b]thiophene-3-carbonitrile] | < 500 nM
< 100 nM | < 5000 nM | < 100 nM | < 100 nM | < 100 nM | < 5000 nM | CN1CCC(N2CCOc3c(Cl)c(-c4ccc(F)c5sc(N)c(C#N)c45)c(F)c4nc(OC[C@@]56CCCN5C[C@H](F)C6)nc2c34)C1 (stereo partly drawn) [Compound 921, 2-amino-4-(8-chloro-10-fluoro-2-(((2R,7aS)-2-fluorotetrahydro-1H-pyrrolizin-7a(5H)-yl)methoxy)-4-(1-methylpyrrolidin-3-yl)-5,6-dihydro-4H-[1,4]oxazepino[5,6,7-de]quinazolin-9-yl)-7-fluorobenzo[b]thiophene-3-carbonitrile] | < 500 nM
< 100 nM | < 5000 nM | < 100 nM | < 100 nM | < 100 nM | < 5000 nM | N#Cc1c(N)sc2c(F)ccc(-c3c(Cl)c4c5c(nc(OC[C@@]67CCCN6C[C@H](F)C7)nc5c3F)N(C3CCOC3)CCO4)c12 (stereo partly drawn) [Compound 688, 2-amino-4-(8-chloro-10-fluoro-2-(((2R,7aS)-2-fluorotetrahydro-1H-pyrrolizin-7a(5H)-yl)methoxy)-4-(tetrahydrofuran-3-yl)-5,6-dihydro-4H-[1,4]oxazepino[5,6,7-de]quinazolin-9-yl)-7-fluorobenzo[b]thiophene-3-carbonitrile] | < 500 nM
< 100 nM | < 5000 nM | < 100 nM | < 100 nM | < 100 nM | < 5000 nM | C[C@H]1CN(CC(F)F)c2nc(OC[C@@]34CCCN3C[C@H](F)C4)nc3c(F)c(-c4ccc(F)c5sc(N)c(C#N)c45)c(Cl)c(c23)O1 [Compound 1021, 2-amino-4-((6S)-8-chloro-4-(2,2-difluoroethyl)-10-fluoro-2-(((2R,7aS)-2-fluorotetrahydro-1H-pyrrolizin-7a(5H)-yl)methoxy)-6-methyl-5,6-dihydro-4H-[1,4]oxazepino[5,6,7-de]quinazolin-9-yl)-7-fluorobenzo[b]thiophene-3-carbonitrile] | < 500 nM
